According to US20240108006A1, “PESTICIDALLY ACTIVE HETEROAROMATIC COMPOUNDS” (SYNGENTA CROP PROTECTION AG, priority 2021, published 2024):

Assays:
Assay type in all cases: in vivo
Myzus persicae [1] = experiment: Example B7: Myzus persicae (green peach aphid), intrinsic activity, sucrose solution 24-well; conditions: 120 h, application rate of 12.5 ppm, 5 days after infestation, read-out: control (mortality)
Outline: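 Compounds from 10,000 ppm DMSO stocks were mixed into sucrose solution in wells at a rate of 12.5 ppm. Aphid-infested pea seedlings were placed on a Parafilm membrane over the solution, so aphids fed through it. Mortality was scored 5 days after infestation.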

Spodoptera littoralis = experiment: Example B9: Spodoptera littoralis (Egyptian cotton leaf worm), cotton leaf discs, L1 larvae; conditions: foliar, 72 h, application rate of 200 ppm, 3 days after infestation, read-out: control in at least one of the three categories (mortality, anti-feedant effect, or growth inhibition)
Outline: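 Five L1 larvae placed on sprayed, dried cotton leaf discs; spray solutions aqueous, from 10,000 ppm DMSO stocks. Control given when mortality, anti-feedant effect or growth inhibition exceeds untreated samples at 3 days.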

Myzus persicae [2] = experiment: Example B5: Myzus persicae (green peach aphid), feeding/contact activity; conditions: 144 h, application rate of 200 ppm, 6 days after infestation
Method: Example B5: Myzus persicae (Green Peach Aphid):Feeding/Contact Activity
Sunflower leaf discs were placed onto agar in a 24-well microtiter plate and sprayed with aqueous test solutions prepared from 10,000 ppm DMSO stock solutions. After drying, the leaf discs were infested with an aphid population of mixed ages. The samples were assessed for mortality 6 days after infestation.

Chilo suppressalis = experiment: Example B1: Chilo suppressalis (striped rice stemborer), artificial diet, L2 larvae; conditions: 144 h, application rate of 200 ppm, 6 days after infestation, read-out: control in at least one of the three categories (mortality, anti-feedant effect, or growth inhibition)
Outline: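 L2 larvae (6-8 per well) were placed on dried artificial diet that had been dosed with aqueous dilutions of 10,000 ppm DMSO stock solutions. After 6 days, control was credited if mortality, antifeedant effect or growth inhibition was higher than in untreated samples.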

Diabrotica balteata = experiment: Example B2: Diabrotica balteata (corn root worm), maize sprouts, L2 larvae; conditions: 96 h, application rate of 200 ppm, 4 days after infestation, read-out: control in at least one of the two categories (mortality or growth inhibition)
Method: Example B2: Diabrotica balteata (Corn Root Worm)
Maize sprouts placed onto an agar layer in 24-well microtiter plates were treated with aqueous test solutions prepared from 10,000 ppm DMSO stock solutions by spraying. After drying, the plates were infested with L2 larvae (6 to 10 per well). The samples were assessed for mortality and growth inhibition in comparison to untreated samples 4 days after infestation.
The following compounds gave an effect of at least 80% control in at least one of the two categories (mortality or growth inhibition) at an application rate of 200 ppm: […]

Plutella xylostella = experiment: Example B8: Plutella xylostella (diamond back moth), artificial diet 24-well, eggs; conditions: 192 h, application rate of 200 ppm, 8 days after infestation, read-out: effect in at least one of the two categories (mortality or growth inhibition)
Outline: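 Plutella eggs placed onto dried, compound-treated artificial diet, the aqueous test solutions diluted from 10,000 ppm DMSO stocks. Eight days post-infestation, larvae rated for mortality and growth inhibition relative to untreated controls.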

C[C@@H](c1ncnn1-c1ncccn1)N(C)C(=O)N(C)c1cc(OC(F)(F)C(F)F)c(Cl)cc1Cl [Example P132, 1-[2,4-dichloro-5-(1,1,2,2-tetrafluoroethoxy)phenyl]-1,3-dimethyl-3-[(1S)-1-(2-pyrimidin-2-yl-1,2,4-triazol-3-yl)ethyl]urea]
≥ 80%: mortality at 12.5 ppm (Myzus persicae [1]) | percent control (mortality, anti-feedant effect or growth inhibition) at 200 ppm (Spodoptera littoralis) | mortality at 200 ppm (Myzus persicae [2]) | percent control (mortality, anti-feedant effect or growth inhibition) at 200 ppm (Chilo suppressalis) | percent control (mortality or growth inhibition) at 200 ppm (Diabrotica balteata) | percent effect (mortality or growth inhibition) at 200 ppm (Plutella xylostella)

C[C@H](NC(=O)Nc1ccc(Br)cc1OC(F)F)c1ncnn1-c1ncccn1 [Example P58, 1-[4-bromo-2-(difluoromethoxy)phenyl]-3-[(1S)-1-(2-pyrimidin-2-yl-1,2,4-triazol-3-yl)ethyl]urea]
≥ 80%: mortality at 12.5 ppm (Myzus persicae [1]) | percent control (mortality, anti-feedant effect or growth inhibition) at 200 ppm (Spodoptera littoralis) | mortality at 200 ppm (Myzus persicae [2]) | percent control (mortality, anti-feedant effect or growth inhibition) at 200 ppm (Chilo suppressalis) | percent control (mortality or growth inhibition) at 200 ppm (Diabrotica balteata) | percent effect (mortality or growth inhibition) at 200 ppm (Plutella xylostella)

C[C@H](NC(=O)Nc1cc(C(F)(F)F)c(Br)cc1Br)c1ncnn1-c1ncccn1 [Example P205, 1-[2,4-dibromo-5-(trifluoromethyl)phenyl]-3-[(1S)-1-(2-pyrimidin-2-yl-1,2,4-triazol-3-yl)ethyl]urea]
≥ 80%: mortality at 12.5 ppm (Myzus persicae [1]) | percent control (mortality, anti-feedant effect or growth inhibition) at 200 ppm (Spodoptera littoralis) | mortality at 200 ppm (Myzus persicae [2]) | percent control (mortality, anti-feedant effect or growth inhibition) at 200 ppm (Chilo suppressalis) | percent control (mortality or growth inhibition) at 200 ppm (Diabrotica balteata) | percent effect (mortality or growth inhibition) at 200 ppm (Plutella xylostella)

C[C@H](NC(=O)Nc1cc(OCc2cccc(Br)n2)c(Cl)cc1Cl)c1ncnn1-c1ncccn1 [Example P145, 1-[5-[(6-bromo-2-pyridyl)methoxy]-2,4-dichloro-phenyl]-3-[(1S)-1-(2-pyrimidin-2-yl-1,2,4-triazol-3-yl)ethyl]urea]
≥ 80%: mortality at 200 ppm (Myzus persicae [2])

C[C@H](NC(=O)Nc1cc(C(F)(F)F)cc(C(F)(F)F)n1)c1ncnn1-c1ncccn1 [Example P91, 1-[4,6-bis(trifluoromethyl)-2-pyridyl]-3-[(1S)-1-(2-pyrimidin-2-yl-1,2,4-triazol-3-yl)ethyl]urea]
≥ 80%: mortality at 200 ppm (Myzus persicae [2])

COc1cc(Cl)c(NC(=O)N[C@@H](C)c2ncnn2-c2ncccn2)cc1Cl [Example P204, 1-(2,5-dichloro-4-methoxy-phenyl)-3-[(1S)-1-(2-pyrimidin-2-yl-1,2,4-triazol-3-yl)ethyl]urea]
≥ 80%: mortality at 200 ppm (Myzus persicae [2])

C[C@H](NC(=O)Nc1cc(OC(F)(F)C(F)C(F)(F)F)c(Cl)cc1F)c1ncnn1-c1ncccn1 (stereo partly drawn) [Example P215, 1-[4-chloro-2-fluoro-5-(1,1,2,3,3,3-hexafluoropropoxy)phenyl]-3-[(1S)-1-(2-pyrimidin-2-yl-1,2,4-triazol-3-yl)ethyl]urea]
≥ 80%: mortality at 12.5 ppm (Myzus persicae [1]) | percent control (mortality, anti-feedant effect or growth inhibition) at 200 ppm (Spodoptera littoralis) | percent control (mortality, anti-feedant effect or growth inhibition) at 200 ppm (Chilo suppressalis) | percent control (mortality or growth inhibition) at 200 ppm (Diabrotica balteata) | percent effect (mortality or growth inhibition) at 200 ppm (Plutella xylostella)

C[C@H](NC(=O)Nc1cc(OC(F)F)c(Cl)cc1Cl)c1ncnn1-c1ncccn1 [Example P272, 1-[2,4-dichloro-5-(difluoromethoxy)phenyl]-3-[(1S)-1-(2-pyrimidin-2-yl-1,2,4-triazol-3-yl)ethyl]urea]
≥ 80%: mortality at 12.5 ppm (Myzus persicae [1]) | percent control (mortality, anti-feedant effect or growth inhibition) at 200 ppm (Spodoptera littoralis) | percent control (mortality, anti-feedant effect or growth inhibition) at 200 ppm (Chilo suppressalis) | percent control (mortality or growth inhibition) at 200 ppm (Diabrotica balteata) | percent effect (mortality or growth inhibition) at 200 ppm (Plutella xylostella)

CC(NC(=O)Nc1cc(OC(F)(F)C(F)F)c(Cl)cc1Cl)c1ncnn1-c1ncccn1 (centres unmarked) [Example P177, 1-[2,4-dichloro-5-(1,1,2,2-tetrafluoroethoxy)phenyl]-3-[1-(2-pyrimidin-2-yl-1,2,4-triazol-3-yl)ethyl]urea]
≥ 80%: mortality at 12.5 ppm (Myzus persicae [1]) | percent control (mortality, anti-feedant effect or growth inhibition) at 200 ppm (Spodoptera littoralis) | percent control (mortality, anti-feedant effect or growth inhibition) at 200 ppm (Chilo suppressalis) | percent control (mortality or growth inhibition) at 200 ppm (Diabrotica balteata) | percent effect (mortality or growth inhibition) at 200 ppm (Plutella xylostella)

Cc1nc([C@H](C)NC(=O)Nc2cc(OC(F)(F)C(F)F)c(Cl)cc2Cl)n(-c2ncccn2)n1 [Example P276, 1-[2,4-dichloro-5-(1,1,2,2-tetrafluoroethoxy)phenyl]-3-[(1S)-1-(5-methyl-2-pyrimidin-2-yl-1,2,4-triazol-3-yl)ethyl]urea]
≥ 80%: mortality at 12.5 ppm (Myzus persicae [1]) | percent control (mortality, anti-feedant effect or growth inhibition) at 200 ppm (Spodoptera littoralis) | percent control (mortality, anti-feedant effect or growth inhibition) at 200 ppm (Chilo suppressalis) | percent control (mortality or growth inhibition) at 200 ppm (Diabrotica balteata) | percent effect (mortality or growth inhibition) at 200 ppm (Plutella xylostella)

C[C@H](NC(=O)Nc1ccnn1-c1ccc(Cl)cn1)c1ncnn1-c1ncccn1 [Example P17, 1-[2-(5-chloro-2-pyridyl)pyrazol-3-yl]-3-[(1S)-1-(2-pyrimidin-2-yl-1,2,4-triazol-3-yl)ethyl]urea]
≥ 80%: mortality at 200 ppm (Myzus persicae [2])

C[C@H](NC(=O)Nc1cc(C(F)(F)F)n(C)n1)c1ncnn1-c1ncccn1 [Example P108, 1-[1-methyl-5-(trifluoromethyl)pyrazol-3-yl]-3-[(1S)-1-(2-pyrimidin-2-yl-1,2,4-triazol-3-yl)ethyl]urea]
≥ 80%: mortality at 200 ppm (Myzus persicae [2])

C[C@H](NC(=O)Nc1cc(C(F)(F)F)ncn1)c1ncnn1-c1ncccn1 [Example P32, 1-[(1S)-1-(2-pyrimidin-2-yl-1,2,4-triazol-3-yl)ethyl]-3-[6-(trifluoromethyl)pyrimidin-4-yl]urea]
≥ 80%: mortality at 200 ppm (Myzus persicae [2])

C[C@H](NC(=O)Nc1cc2c(cc1Cl)C(=O)N(C)C2=O)c1ncnn1-c1ncccn1 [Example P207, 1-(6-chloro-2-methyl-1,3-dioxo-isoindolin-5-yl)-3-[(1S)-1-(2-pyrimidin-2-yl-1,2,4-triazol-3-yl)ethyl]urea]
≥ 80%: mortality at 200 ppm (Myzus persicae [2])

C[C@H](NC(=O)Nc1cc(C(C)(C)C#N)c(Cl)cc1F)c1ncnn1-c1ncccn1 [Example P202, 1-[4-chloro-5-(1-cyano-1-methyl-ethyl)-2-fluoro-phenyl]-3-[(1S)-1-(2-pyrimidin-2-yl-1,2,4-triazol-3-yl)ethyl]urea]
≥ 80%: mortality at 12.5 ppm (Myzus persicae [1]) | percent control (mortality, anti-feedant effect or growth inhibition) at 200 ppm (Spodoptera littoralis) | mortality at 200 ppm (Myzus persicae [2]) | percent control (mortality, anti-feedant effect or growth inhibition) at 200 ppm (Chilo suppressalis) | percent effect (mortality or growth inhibition) at 200 ppm (Plutella xylostella)

CC(NC(=O)Nc1cc(OC(F)(F)C(F)F)c(Cl)cc1Cl)c1nccnc1-c1ncccn1 (centres unmarked) [Example P238, 1-[2,4-dichloro-5-(1,1,2,2-tetrafluoroethoxy)phenyl]-3-[1-(3-pyrimidin-2-ylpyrazin-2-yl)ethyl]urea]
≥ 80%: mortality at 12.5 ppm (Myzus persicae [1]) | percent control (mortality, anti-feedant effect or growth inhibition) at 200 ppm (Spodoptera littoralis) | percent control (mortality, anti-feedant effect or growth inhibition) at 200 ppm (Chilo suppressalis) | percent control (mortality or growth inhibition) at 200 ppm (Diabrotica balteata) | percent effect (mortality or growth inhibition) at 200 ppm (Plutella xylostella)

Cc1cc(F)c(OS(C)(=O)=O)cc1NC(=O)N[C@@H](C)c1ncnn1-c1ncccn1 [Example P181, [2-fluoro-4-methyl-5-[[(1S)-1-(2-pyrimidin-2-yl-1,2,4-triazol-3-yl)ethyl]carbamoylamino]phenyl] methanesulfonate]
≥ 80%: mortality at 12.5 ppm (Myzus persicae [1]) | mortality at 200 ppm (Myzus persicae [2]) | percent control (mortality, anti-feedant effect or growth inhibition) at 200 ppm (Chilo suppressalis)

COc1ccc(COc2cc(NC(=O)N[C@@H](C)c3ncnn3-c3ncccn3)c(Cl)cc2Cl)cc1F [Example P168, 1-[2,4-dichloro-5-[(3-fluoro-4-methoxy-phenyl)methoxy]phenyl]-3-[(1S)-1-(2-pyrimidin-2-yl-1,2,4-triazol-3-yl)ethyl]urea]
≥ 80%: mortality at 200 ppm (Myzus persicae [2])
